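All cell lines were grown in 96-well plates and treated with compound for 48 hours. TGI: total growth inhibition.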
Key:
Experiment in all cases: inhibition of tumour cell growth, NCI panel, 48 h
A498 renal = test system: A498 renal
A549 NSCLC = test system: A549 NSCLC
ACHN renal = test system: ACHN renal
BT-549 breast = test system: BT-549 breast
CAKI-1 renal = test system: CAKI-1 renal
CCRF-CEM leukemia = test system: CCRF-CEM leukemia
COLO 205 colon = test system: COLO 205 colon
DU-145 prostate = test system: DU-145 prostate
EKVX NSCLC = test system: EKVX NSCLC
HCC-2998 colon = test system: HCC-2998 colon
HCT-116 colon = test system: HCT-116 colon
HCT-15 colon = test system: HCT-15 colon
HL-60(TB) leukemia = test system: HL-60(TB) leukemia
HOP-62 NSCLC = test system: HOP-62 NSCLC
HOP-92 NSCLC = test system: HOP-92 NSCLC
HS 578T breast = test system: HS 578T breast
HT29 colon = test system: HT29 colon
IGROV1 ovarian = test system: IGROV1 ovarian
K-562 leukemia = test system: K-562 leukemia
KM12 colon = test system: KM12 colon
LOX IMVI melanoma = test system: LOX IMVI melanoma
M14 melanoma = test system: M14 melanoma
MALME-3M melanoma = test system: MALME-3M melanoma
MCF7 breast = test system: MCF7 breast
MDA-MB-231 breast = test system: MDA-MB-231 breast
MDA-MB-435 = test system: MDA-MB-435
MDA-N = test system: MDA-N
NCI-H226 lung = test system: NCI-H226 lung
NCI-H23 lung = test system: NCI-H23 lung
NCI-H460 lung = test system: NCI-H460 lung
NCI-H522 lung = test system: NCI-H522 lung
NCI/ADR-RES ovarian = test system: NCI/ADR-RES ovarian
OVCAR-3 ovarian = test system: OVCAR-3 ovarian
OVCAR-4 ovarian = test system: OVCAR-4 ovarian
OVCAR-5 ovarian = test system: OVCAR-5 ovarian
OVCAR-8 ovarian = test system: OVCAR-8 ovarian
PC-3 prostate = test system: PC-3 prostate
RPMI-8226 leukemia = test system: RPMI-8226 leukemia
RXF 393 renal = test system: RXF 393 renal
SF-268 CNS = test system: SF-268 CNS
SF-295 CNS = test system: SF-295 CNS
SF-539 CNS = test system: SF-539 CNS
SK-MEL-2 melanoma = test system: SK-MEL-2 melanoma
SK-MEL-28 melanoma = test system: SK-MEL-28 melanoma
SK-MEL-5 melanoma = test system: SK-MEL-5 melanoma
SK-OV-3 ovarian = test system: SK-OV-3 ovarian
SN12C renal = test system: SN12C renal
SNB-19 CNS = test system: SNB-19 CNS
SNB-75 CNS = test system: SNB-75 CNS
SR leukemia = test system: SR leukemia
SW-620 colon = test system: SW-620 colon
T-47D breast = test system: T-47D breast
U251 CNS = test system: U251 CNS
UACC-257 melanoma = test system: UACC-257 melanoma
UACC-62 melanoma = test system: UACC-62 melanoma
UO-31 renal = test system: UO-31 renal
786-0 renal = test system: 786-0 renal
MOLT-4 leukemia = test system: MOLT-4 leukemia
TK-10 renal = test system: TK-10 renal

**Q.** NC(=O)NC(=O)c1cccc(NC(=O)CI)c1 was tested. Which TGI (A498 renal) did it give?
**A.** 0.805 µM

**Q.** And the TGI (A549 NSCLC)?
**A.** 12.4 µM

**Q.** And the TGI (ACHN renal)?
**A.** 1.58 µM

**Q.** And the TGI (BT-549 breast)?
**A.** 2.44 µM

**Q.** What about the TGI (CAKI-1 renal) of the same compound?
**A.** 0.662 µM

**Q.** And the TGI (CCRF-CEM leukemia)?
**A.** 0.145 µM

**Q.** And the TGI (COLO 205 colon)?
**A.** < 0.01 µM

**Q.** And the TGI (DU-145 prostate)?
**A.** 0.103 µM

**Q.** And the TGI (EKVX NSCLC)?
**A.** 10.4 µM

**Q.** And the TGI (HCC-2998 colon)?
**A.** 0.609 µM

**Q.** And the TGI (HCT-116 colon)?
**A.** 0.106 µM

**Q.** What about the TGI (HCT-15 colon) of the same compound?
**A.** 2.06 µM

**Q.** What about the TGI (HL-60(TB) leukemia) of the same compound?
**A.** < 0.01 µM

**Q.** What about the TGI (HOP-62 NSCLC) of the same compound?
**A.** 1.16 µM

**Q.** What about the TGI (HOP-92 NSCLC) of the same compound?
**A.** 1.58 µM

**Q.** And the TGI (HS 578T breast)?
**A.** 0.146 µM

**Q.** What about the TGI (HT29 colon) of the same compound?
**A.** 0.0607 µM

**Q.** And the TGI (IGROV1 ovarian)?
**A.** 0.796 µM

**Q.** What about the TGI (K-562 leukemia) of the same compound?
**A.** 1.45 µM

**Q.** And the TGI (KM12 colon)?
**A.** 18.5 µM

**Q.** What about the TGI (LOX IMVI melanoma) of the same compound?
**A.** 0.395 µM

**Q.** And the TGI (M14 melanoma)?
**A.** 0.408 µM

**Q.** What about the TGI (MALME-3M melanoma) of the same compound?
**A.** 0.899 µM

**Q.** And the TGI (MCF7 breast)?
**A.** 1.56 µM

**Q.** And the TGI (MDA-MB-231 breast)?
**A.** 0.866 µM

**Q.** And the TGI (MDA-MB-435)?
**A.** 0.202 µM

**Q.** And the TGI (MDA-N)?
**A.** 0.0253 µM

**Q.** What about the TGI (NCI-H226 lung) of the same compound?
**A.** 0.201 µM

**Q.** And the TGI (NCI-H23 lung)?
**A.** 2.04 µM

**Q.** And the TGI (NCI-H460 lung)?
**A.** 0.286 µM

**Q.** And the TGI (NCI-H522 lung)?
**A.** < 0.01 µM

**Q.** And the TGI (NCI/ADR-RES ovarian)?
**A.** 5.32 µM

**Q.** And the TGI (OVCAR-3 ovarian)?
**A.** < 0.01 µM

**Q.** And the TGI (OVCAR-4 ovarian)?
**A.** 5.08 µM

**Q.** What about the TGI (OVCAR-5 ovarian) of the same compound?
**A.** 2.12 µM

**Q.** And the TGI (OVCAR-8 ovarian)?
**A.** 0.188 µM

**Q.** And the TGI (PC-3 prostate)?
**A.** 1.35 µM

**Q.** And the TGI (RPMI-8226 leukemia)?
**A.** 0.312 µM

**Q.** What about the TGI (RXF 393 renal) of the same compound?
**A.** 2.13 µM

**Q.** What about the TGI (SF-268 CNS) of the same compound?
**A.** 0.0717 µM

**Q.** What about the TGI (SF-295 CNS) of the same compound?
**A.** 2.68 µM

**Q.** What about the TGI (SF-539 CNS) of the same compound?
**A.** 0.0701 µM

**Q.** What about the TGI (SK-MEL-2 melanoma) of the same compound?
**A.** 0.837 µM

**Q.** And the TGI (SK-MEL-28 melanoma)?
**A.** 7.49 µM

**Q.** What about the TGI (SK-MEL-5 melanoma) of the same compound?
**A.** 0.0382 µM

**Q.** What about the TGI (SK-OV-3 ovarian) of the same compound?
**A.** 1.06 µM

**Q.** And the TGI (SN12C renal)?
**A.** 0.326 µM

**Q.** And the TGI (SNB-19 CNS)?
**A.** 14.7 µM

**Q.** What about the TGI (SNB-75 CNS) of the same compound?
**A.** 1.75 µM

**Q.** What about the TGI (SR leukemia) of the same compound?
**A.** 0.416 µM

**Q.** And the TGI (SW-620 colon)?
**A.** 2.03 µM

**Q.** And the TGI (T-47D breast)?
**A.** 4.3 µM

**Q.** What about the TGI (U251 CNS) of the same compound?
**A.** 0.136 µM

**Q.** What about the TGI (UACC-257 melanoma) of the same compound?
**A.** 0.438 µM

**Q.** And the TGI (UACC-62 melanoma)?
**A.** 0.692 µM

**Q.** And the TGI (UO-31 renal)?
**A.** 1.44 µM

**Q.** CNN1C(=O)c2c(N)c(C#N)c(-c3ccccc3)c(-c3ccccc3)c2C1=O was tested. Which TGI (786-0 renal) did it give?
**A.** > 100 µM

**Q.** What about the TGI (A498 renal) of the same compound?
**A.** > 100 µM

**Q.** What about the TGI (A549 NSCLC) of the same compound?
**A.** > 100 µM

**Q.** What about the TGI (ACHN renal) of the same compound?
**A.** > 100 µM

**Q.** And the TGI (BT-549 breast)?
**A.** > 100 µM

**Q.** What about the TGI (CAKI-1 renal) of the same compound?
**A.** > 100 µM

**Q.** And the TGI (CCRF-CEM leukemia)?
**A.** > 100 µM

**Q.** And the TGI (COLO 205 colon)?
**A.** > 100 µM

**Q.** What about the TGI (DU-145 prostate) of the same compound?
**A.** > 100 µM

**Q.** And the TGI (EKVX NSCLC)?
**A.** > 100 µM

**Q.** And the TGI (HCC-2998 colon)?
**A.** > 100 µM

**Q.** And the TGI (HCT-116 colon)?
**A.** > 100 µM

**Q.** And the TGI (HCT-15 colon)?
**A.** > 100 µM

**Q.** And the TGI (HL-60(TB) leukemia)?
**A.** > 100 µM

**Q.** What about the TGI (HOP-92 NSCLC) of the same compound?
**A.** > 100 µM

**Q.** What about the TGI (HS 578T breast) of the same compound?
**A.** > 100 µM

**Q.** What about the TGI (IGROV1 ovarian) of the same compound?
**A.** > 100 µM

**Q.** What about the TGI (K-562 leukemia) of the same compound?
**A.** > 100 µM

**Q.** And the TGI (KM12 colon)?
**A.** > 100 µM

**Q.** What about the TGI (LOX IMVI melanoma) of the same compound?
**A.** > 100 µM

**Q.** And the TGI (M14 melanoma)?
**A.** > 100 µM

**Q.** What about the TGI (MALME-3M melanoma) of the same compound?
**A.** > 100 µM

**Q.** What about the TGI (MCF7 breast) of the same compound?
**A.** > 100 µM

**Q.** And the TGI (MDA-MB-231 breast)?
**A.** > 100 µM

**Q.** What about the TGI (MDA-MB-435) of the same compound?
**A.** > 100 µM

**Q.** What about the TGI (MDA-N) of the same compound?
**A.** > 100 µM

**Q.** And the TGI (MOLT-4 leukemia)?
**A.** > 100 µM

**Q.** What about the TGI (NCI-H226 lung) of the same compound?
**A.** > 100 µM

**Q.** What about the TGI (NCI-H460 lung) of the same compound?
**A.** > 100 µM

**Q.** And the TGI (NCI-H522 lung)?
**A.** > 100 µM

**Q.** What about the TGI (NCI/ADR-RES ovarian) of the same compound?
**A.** > 100 µM

**Q.** What about the TGI (OVCAR-3 ovarian) of the same compound?
**A.** > 100 µM

**Q.** What about the TGI (OVCAR-4 ovarian) of the same compound?
**A.** > 100 µM

**Q.** What about the TGI (OVCAR-5 ovarian) of the same compound?
**A.** > 100 µM

**Q.** What about the TGI (OVCAR-8 ovarian) of the same compound?
**A.** > 100 µM

**Q.** What about the TGI (PC-3 prostate) of the same compound?
**A.** > 100 µM

**Q.** And the TGI (RPMI-8226 leukemia)?
**A.** > 100 µM

**Q.** What about the TGI (RXF 393 renal) of the same compound?
**A.** > 100 µM

**Q.** What about the TGI (SF-268 CNS) of the same compound?
**A.** > 100 µM

**Q.** And the TGI (SF-295 CNS)?
**A.** > 100 µM

**Q.** And the TGI (SF-539 CNS)?
**A.** > 100 µM

**Q.** What about the TGI (SK-MEL-2 melanoma) of the same compound?
**A.** > 100 µM

**Q.** What about the TGI (SK-MEL-28 melanoma) of the same compound?
**A.** > 100 µM

**Q.** And the TGI (SK-MEL-5 melanoma)?
**A.** > 100 µM

**Q.** What about the TGI (SN12C renal) of the same compound?
**A.** > 100 µM

**Q.** What about the TGI (SNB-19 CNS) of the same compound?
**A.** > 100 µM

**Q.** And the TGI (SNB-75 CNS)?
**A.** > 100 µM

**Q.** And the TGI (SR leukemia)?
**A.** > 100 µM

**Q.** What about the TGI (SW-620 colon) of the same compound?
**A.** > 100 µM

**Q.** What about the TGI (T-47D breast) of the same compound?
**A.** > 100 µM

**Q.** And the TGI (TK-10 renal)?
**A.** > 100 µM

**Q.** And the TGI (U251 CNS)?
**A.** > 100 µM

**Q.** What about the TGI (UACC-257 melanoma) of the same compound?
**A.** > 100 µM

**Q.** What about the TGI (UACC-62 melanoma) of the same compound?
**A.** > 100 µM

**Q.** And the TGI (UO-31 renal)?
**A.** > 100 µM
